# Test results reported in ChEMBL document CHEMBL1671774, “An efficient synthesis of the precursor of AI-2, the signalling molecule for inter-species quorum sensing” (Bioorg Med Chem, 2011).
# The source made the active and inactive calls. No cut-off for these calls is given here.
# Assays:
# Escherichia coli [1] = experiment: Ratio of compound activity over DPD activity for induction of LsrB-dependent quorum sensing in Escherichia coli KX1446
# Escherichia coli [2] = experiment: Induction of LsrB-dependent quorum sensing in Escherichia coli KX1446 assessed as expression of Lsr system at 40 uM by beta-galactosidase reporter assay
# [3] = target: Autoinducer 2-binding periplasmic protein LuxP (Vibrio harveyi) (UniProt P54300); experiment: Induction of LuxP-dependent quorum sensing in Vibrio harveyi MM32 assessed as induction of bioluminescence intensity after 4 hrs
# Chain of Autoinducer 2-binding periplasmic protein LuxP (Vibrio harveyi) (P54300 whole entry): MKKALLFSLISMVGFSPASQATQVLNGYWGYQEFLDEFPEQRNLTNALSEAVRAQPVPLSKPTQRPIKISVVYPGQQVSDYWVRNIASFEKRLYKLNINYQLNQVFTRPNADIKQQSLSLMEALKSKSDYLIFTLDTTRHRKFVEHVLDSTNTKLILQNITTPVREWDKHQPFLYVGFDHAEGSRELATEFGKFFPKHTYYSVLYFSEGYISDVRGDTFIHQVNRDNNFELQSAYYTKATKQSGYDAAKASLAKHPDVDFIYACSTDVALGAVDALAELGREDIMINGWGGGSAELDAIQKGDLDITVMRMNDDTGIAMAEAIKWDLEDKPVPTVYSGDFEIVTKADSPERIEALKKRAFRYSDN
# [4] = target: Autoinducer 2-binding periplasmic protein LuxP (Vibrio harveyi) (UniProt P54300); experiment: Binding affinity to LuxP in Vibrio harveyi MM32 by FRET method
Structure (SMILES),Ratio (Escherichia coli [1]),Activity (Escherichia coli [2]),Activity [3],Activity [4]
C[C@@]1(O)OC[C@H](O)C1(O)O,6,Active,–,–
C[C@]12OC[C@H](O)[C@@]1(O)O[B-](O)(O)O2,–,–,Active,–
CC(=O)C(=O)[C@@H](O)CO,–,inactive,Active,Active
